These results are taken from patent publication US20070190523A1 (priority 2002, published 2007).

Test [1] relates to WT. More on the design: species or system HIV-1. Particulars: read-out: Cell-based assay (MT-4) EC50/nM WT.
Test [2] has as its target T1, WT (Human immunodeficiency virus type 1 group M subtype B, UniProt P04585). Briefly: cell-based. More on the design: species or system HIV.
The test system of test [3] is 30N82I88D. In words: microbe, parasite or virus in culture. Particulars: Human immunodeficiency virus 1, read-out: Cell-based assay (MT-4) EC50/nM 30N82I88D. Format: cell-based, HIV.
Test [4] deals with recombinant HIV-1 protease (Human immunodeficiency virus type 1 group M subtype B, UniProt P04585). In words: biochemical. Format: biochemical. Particulars: Ki (nM).
For test [5], the system named is 48V54V82A. In words: microbe, parasite or virus in culture. Format: cell-based, HIV. Particulars: Human immunodeficiency virus 1, read-out: Cell-based assay (MT-4) EC50/nM 48V54V82A.
Test [6] concerns 48V82A90M. Briefly: microbe, parasite or virus in culture. More on the design: species or system HIV. Particulars: Human immunodeficiency virus 1, read-out: Cell-based assay (MT-4) EC50/nM 48V82A90M.
Test [7] concerns 46I50V. In words: microbe, parasite or virus in culture. Particulars: Human immunodeficiency virus 1, read-out: Cell-based assay (MT-4) EC50/nM 46I50V. Format: cell-based, HIV.
Test [8] concerns the target T1, WT. Briefly: biochemical. More on the design: species or system HIV.
For test [9], the target named is T2, 84V90M (Human immunodeficiency virus type 1 group M subtype B, UniProt P04585, I572V/L578M). In words: cell-based. More on the design: species or system HIV.
Test [10] has as its system 48V54V82S. Briefly: microbe, parasite or virus in culture. More on the design: species or system HIV. Particulars: Human immunodeficiency virus 1, read-out: Cell-based assay (MT-4) EC50/nM 48V54V82S.
Test [11] addresses T2, 84V90M. Briefly: biochemical. Format: biochemical, HIV.
For test [12], the target named is T2, 84V90M. The class given is biochemical, HIV-1. Particulars: 84V90M enzyme; read-out: Enzymatic assay 84V90M IC50/nM.
Test [13] concerns the target T2, 84V90M. In words: Cell-based assay (MT-4) EC50, 84V90M. On the set-up: species or system HIV-1.

pEC50, pIC50: −log10 of the molar value. Like-named read-outs stand apart in the source and are kept apart here.

Take `O=C1N(Cc2ccccc2)C(Cc2ccccc2)C(O)C(O)C(Cc2ccc(O)cc2)N1Cc1ccccc1` (stereo not shown) [H / Ph / OH]: in [1], the EC50 was 1260 nM.

As to `CCOP(=O)(CCCNC(=O)c1cccc(CN2C(=O)N(Cc3ccc(O)cc3)C(Cc3ccccc3)C(O)C(O)C2Cc2ccccc2)c1)OCC` (stereo not shown), the negative logarithm of the EC50 (pEC50) (usually the EC50 on a negative log10 scale, so that one unit is a factor of ten) in test [2] is 7.19; in [9], 6.51. Also, the EC50 in test [3] was 74 nM; in test [5], 80 nM; in [6], 74 nM; in [7], 85 nM; in [10], 75 nM. The Ki (commonly the dissociation constant of the complex between target and ligand, obtained from inhibition or displacement) in test [4] came out at 0.009 nM. For the same molecule, the pIC50 (as a rule, −log10 of the IC50, conventionally taken in molar units) in test [8] was 8.96; in test [11], 7.92.

`CCOP(=O)(CCNC(=O)Oc1ccc(CC2C(O)C(O)C(Cc3ccc(OC)cc3)N(Cc3cccc(N)c3)C(=O)N2Cc2cccc(N)c2)cc1)OCC` (stereo not shown) [OCH3 / Ph-mNH2 / OCONH(CH2)2PO3Et2]: the IC50 in [12] is 116 nM. In test [13], the pEC50 was 5.64.
